Like-named read-outs stand apart in the source and are kept apart here.
How the values were obtained:
PARP-1 = molecular target: T1, PARP-1 (Homo sapiens, UniProt P09874); test: In vitro PARP-1 inhibitory assay (colorimetric 96-well kit, BPS Bioscience); type: biochemical
T1 construct: purchased BPS Bioscience 80580
Procedure: Briefly, the histone mixture was diluted 1 : 5 with 1× PBS, 50 μl of histone solution was added to each well and incubated at 4 °C overnight. The plate was washed three times using 200 μl PBST buffer (1× PBS containing 0.05% Tween-20) per well. Liquid was removed from the wells by tapping the strip wells on clean paper towels. To each well, 200 μl of blocking buffer was added, followed by 60–90 min incubation at room temperature. Then 25 μl of PARP master mixture (consisting of 2.5 μl 10× PARP buffer + 2.5 μl 10× PARP assay mixture + 5 μl activated DNA + 15 μl distilled water) was added to each well. Olaparib was used as a positive control. 5 μl of inhibitor solution of each well labeled as “test inhibitor” was added. For the “positive control” and “blank”, 5 μl of the same solution without inhibitor was added. 1× PARP buffer was prepared by adding 1 part of 10× PARP buffer to 9 parts H2O (v/v), 20 μl of 1× PARP buffer was added to the wells designated as “blank”. The amount of PARP-1 required for the assay was then calculated. The reaction was initiated by adding 20 μl of diluted PARP1 enzyme to the wells designated “positive control” and “test inhibitor control”. The strip wells were incubated at room temperature for 1 hour. The strip wells were then washed three times with 200 μl PBST buffer. Then, 50 μl of 50 times diluted Streptavidin-HRP with blocking buffer was added to each well, and the strips were further incubated at room temperature for 30 min. After washing the wells three times with 200 μl PBST buffer, HRP colorimetric substrate was added to each well and the plate was incubated at the room temperature until a blue color is developed in the positive control well. Then reaction was quenched with […] per well of 2 M sulfuric acid, and absorbance at 450 nm was determined. Carrier solvents were assayed as negative controls. All assays were performed in triplicate. To determine the IC50 value for each inhibitor, the average absorbance of each inhibitor concentration was plotted against the log of the concentration of each respective inhibitor and the IC50 value for each plot was obtained using computer-assisted non-linear regression analyses. Data presented are the results of at least two independent experiments done in triplicate. The results of these studies are presented as mean IC50 (nM).[24]

HCT116 cells = test: Cell proliferation inhibition (MTT) assay, HCT116; type: cell-based; conditions: Homo sapiens, HCT-116, 96 h incubation
Procedure: (§1) We used the MTT [3-(4,5-dimethylthiazol-2-yl)-2,5-diphenyltetrazoliumbromide] (Biomatik, Wilmington, DE) assay to measure cell growth inhibition, which is based on the conversion of MTT to formazan crystals by mitochondrial dehydrogenases.[25] Only in live cells, mitochondrial enzymes can transform MTT into insoluble formazan. After incubated with serially diluted inhibitors for 96 h, cell cultures were incubated with MTT solution (5 mg ml^−1) for 4 h at 37 °C. Then discard the medium and DMSO was added to solubilize the reaction product formazan by shaking for 10 min. Absorbance at 492 nm was measured with a microplate reader (Thermo, MK3). Cell viability was expressed as an IC50 value.

MCF-7 cells = test: Cell proliferation inhibition (MTT) assay, MCF-7; type: cell-based; conditions: Homo sapiens, MCF7, 96 h incubation
Procedure: as §1

[1] = colorimetric assay, mean of at least two independent experiments in triplicate, read-out: IC50 against PARP-1 (converted)

T1 sequence (P09874 whole entry): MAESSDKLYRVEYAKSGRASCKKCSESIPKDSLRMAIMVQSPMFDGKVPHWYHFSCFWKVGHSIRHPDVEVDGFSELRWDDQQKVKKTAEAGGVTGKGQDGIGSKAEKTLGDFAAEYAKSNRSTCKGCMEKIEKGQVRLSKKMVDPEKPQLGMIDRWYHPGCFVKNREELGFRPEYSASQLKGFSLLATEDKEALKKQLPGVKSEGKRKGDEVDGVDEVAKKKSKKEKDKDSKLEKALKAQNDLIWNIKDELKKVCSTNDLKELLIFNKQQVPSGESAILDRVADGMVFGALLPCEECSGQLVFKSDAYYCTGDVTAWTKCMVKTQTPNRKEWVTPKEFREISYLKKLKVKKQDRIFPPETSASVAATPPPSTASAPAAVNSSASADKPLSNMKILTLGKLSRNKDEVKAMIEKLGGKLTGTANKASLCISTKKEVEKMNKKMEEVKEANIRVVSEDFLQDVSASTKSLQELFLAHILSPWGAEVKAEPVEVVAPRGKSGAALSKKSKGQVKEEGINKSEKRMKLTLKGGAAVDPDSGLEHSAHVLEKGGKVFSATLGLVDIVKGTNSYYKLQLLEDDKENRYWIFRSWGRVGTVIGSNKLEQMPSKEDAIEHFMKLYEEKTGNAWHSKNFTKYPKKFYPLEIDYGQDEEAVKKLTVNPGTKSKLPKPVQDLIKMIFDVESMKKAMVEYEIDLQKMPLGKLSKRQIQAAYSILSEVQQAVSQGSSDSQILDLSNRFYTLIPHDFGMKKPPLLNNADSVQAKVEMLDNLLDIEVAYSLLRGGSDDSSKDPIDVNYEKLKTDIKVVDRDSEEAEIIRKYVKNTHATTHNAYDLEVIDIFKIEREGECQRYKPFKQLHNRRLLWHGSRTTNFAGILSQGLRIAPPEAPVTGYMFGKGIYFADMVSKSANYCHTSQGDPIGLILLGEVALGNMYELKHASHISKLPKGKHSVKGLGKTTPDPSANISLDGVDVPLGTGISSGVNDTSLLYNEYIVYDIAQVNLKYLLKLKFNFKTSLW

Row | IC50 (PARP-1; [1]) | IC50 (HCT116 cells) | IC50 (MCF-7 cells) | IC50 (PARP-1; read-out: IC50 against PARP-1 (converted)) | Compound | IC50 (PARP-1)
1 | 49.1 ± 2.32 nM | 24100 ± 1140 nM | 12680 ± 120 nM | – | N#CC1=C(N)Oc2[nH]c(=O)[nH]c(=O)c2C1c1cccs1 (centres unmarked) [Compound S1, 7-amino-2,4-dioxo-5-(thiophen-2-yl)-2,3,4,5-tetrahydro-1H-pyrano[2,3-d]pyrimidine-6-carbonitrile] | –
2 | 4.06 ± 0.18 nM | 9310 ± 340 nM | 2650 ± 50 nM | – | Nc1nc(S)nc2c1Oc1[nH]c(=O)[nH]c(=O)c1C2c1cccs1 (centres unmarked) [Compound S2, 4-amino-2-mercapto-10-(thiophen-2-yl)-6,10-dihydro-7H-pyrano[2,3-d:5,6-d']dipyrimidine-7,9(8H)-dione] | –
3 | 14.9 ± 1.03 nM | 6380 ± 110 nM | 870 ± 70 nM | 15.1 nM | Nc1ncnc2c1Oc1[nH]c(=O)[nH]c(=O)c1C2c1cccs1 (centres unmarked) [Compound S4, 4-amino-10-(thiophen-2-yl)-6,10-dihydro-7H-pyrano[2,3-d:5,6-d']dipyrimidine-7,9(8H)-dione] | –
4 | 11.1 ± 0.76 nM | 7410 ± 180 nM | 4950 ± 70 nM | – | O=c1[nH]c2c(c(=O)[nH]1)C(c1cccs1)c1[nH]c(=S)[nH]c(=S)c1O2 (centres unmarked) [Compound S5, 10-(thiophen-2-yl)-2,4-dithioxo-1,2,3,4,6,10-hexahydro-7H-pyrano[2,3-d:5,6-d']dipyrimidine-7,9(8H)-dione] | –
5 | 115 ± 7.22 nM | 2850 ± 30 nM | 3120 ± 110 nM | – | CONC1=C(C#N)Oc2[nH]c(=O)[nH]c(=O)c2C1c1cccs1 (centres unmarked) [Compound S6, 6-(methoxyamino)-2,4-dioxo-5-(thiophen-2-yl)-2,3,4,5-tetrahydro-1H-pyrano[2,3-d]pyrimidine-7-carbonitrile] | –
6 | 3.61 ± 0.15 nM | 46900 ± 1820 nM | 1280 ± 1120 nM | – | O=c1[nH]c2c(c(=O)[nH]1)C(c1cccs1)c1[nH]c(=S)n(-c3ccccc3)c(=O)c1O2 (centres unmarked) [Compound S7, 3-phenyl-10-(thiophen-2-yl)-2-thioxo-2,3,6,10-tetrahydro-1H-pyrano[2,3-d:5,6-d']dipyrimidine-4,7,9(8H)-trione] | –
7 | 15.8 ± 0.86 nM | 2760 ± 60 nM | 660 ± 50 nM | – | NC1=CC(c2ccc([N+](=O)[O-])cc2)=NC2Oc3[nH]c(=O)[nH]c(=O)c3C(c3cccs3)C12 (centres unmarked) [Compound S8, 6-amino-8-(4-nitrophenyl)-5-(thiophen-2-yl)-1,5,5a,9a-tetrahydro-2H-pyrido[3′,2':5,6]pyrano[2,3-d]pyrimidine-2,4(3H)-dione] | –
8 | 48.5 ± 3.25 nM | 2900 ± 40 nM | 8770 ± 150 nM | – | CCO/C=N/C1=C(C#N)C(c2cccs2)c2c([nH]c(=O)[nH]c2=O)O1 (centres unmarked) [Compound S9, (E)-ethyl N-(6-cyano-2,4-dioxo-5-(thiophen-2-yl)-2,3,4,5-tetrahydro-1H-pyrano[2,3-d]pyrimidin-7-yl)formimidate] | –
9 | 16.2 ± 0.88 nM | 12100 ± 640 nM | 4480 ± 430 nM | – | Cc1nc(O)c2c(n1)Oc1[nH]c(=O)[nH]c(=O)c1C2c1cccs1 (centres unmarked) [Compound S10, 6-hydroxy-8-methyl-5-(thiophen-2-yl)-1,5-dihydro-2H-pyrano[2,3-d:6,5-d']dipyrimidine-2,4(3H)-dione] | –

Row | Compound | IC50 (PARP-1; [1]) | IC50 (HCT116 cells) | IC50 (MCF-7 cells) | IC50 (PARP-1; read-out: IC50 against PARP-1 (converted)) | IC50 (PARP-1)
10 | Nc1nn(-c2cc([N+](=O)[O-])ccc2[N+](=O)[O-])c2c1Oc1[nH]c(=O)[nH]c(=O)c1C2c1cccs1 (centres unmarked) [Compound S3, 3-amino-1-(2,5-dinitrophenyl)-9-(thiophen-2-yl)-5,9-dihydropyrazolo[3′,4':5,6]pyrano[2,3-d]pyrimidine-6,8(1H,7H)-dione] | – | 2800 ± 70 nM | 3170 ± 1040 nM | – | 71.4 ± 4.12 nM
11 | CN[C@@H]1C[C@H]2O[C@@](C)([C@@H]1OC)n1c3ccccc3c3c4c(c5c6ccccc6n2c5c31)C(=O)NC4 [Staurosporine, reference compound] | – | 6940 ± 210 nM | – | – | –
